Experimental data from patent US8815918B2, “Imidazo [2, 1-B] [1, 3, 4] thiadiazole derivatives” (Centro Nacional de Investigaciones Oncologicas (CNIO), priority 2009, dated 2014).
Read-outs that look alike come from different tables or passages of the source.

Molecular target: PI3K (p110α/p85α) (Homo sapiens (Human), UniProt P42336)
Assay: PI3K Activity Assay (ADP Hunter Plus)
Format: biochemical
Conditions: for inhibition at 10 µM: 10 μM compound concentration, read-out: Inhibition (%) of PI3Kα activity, Inh (%) at 10 μM
Method: The kinase activity was measured by using the commercial ADP Hunter™ Plus assay available from DiscoveRx (#33-016), which is a homogeneous assay to measure the accumulation of ADP, a universal product of kinase activity. The enzyme, PI3K (p110α/p85α was purchased from Carna Biosciences (#07CBS-0402A). The assay was done following the manufacturer recommendations with slight modifications: Mainly the kinase buffer was replace by 50 mM HEPES, pH 7.5, 3 mM MgCl2, 100 mM NaCl, 1 mM EGTA, 0.04% CHAPS, 2 mM TCEP and 0.01 mg/ml BGG. The PI3K was assayed in a titration experiment to determine the optimal protein concentration for the inhibition assay. To calculate the IC50 of the ETP-compounds, serial 1:5 dilutions of the compounds were added to the enzyme at a fixed concentration (2.5 μg/mL. The enzyme was preincubated with the inhibitor and 30 μM PIP2 substrate (P9763, Sigma) for 5 min and then ATP was added to a final 50 μM concentration. Reaction was carried out for 1 hour at 25° C. Reagent A and B were sequentially added to the wells and plates were incubated for 30 min at 37° C. Fluorescence counts were read in a Victor instrument (Perkin Elmer) with the recommended settings (544 and 580 nm as excitation and emission wavelengths, respectively). Values were normalized against the control activity included for each enzyme (i.e., 100% PI3 kinase activity, without compound). These values were plot against the inhibitor concentration and were fit to a sigmoid dose-response curve by using the Graphad software.

[1] = read-out: Biological activity in PI3Kα, semi-quantitative

PI3K (p110α/p85α), sequence (P42336 whole entry): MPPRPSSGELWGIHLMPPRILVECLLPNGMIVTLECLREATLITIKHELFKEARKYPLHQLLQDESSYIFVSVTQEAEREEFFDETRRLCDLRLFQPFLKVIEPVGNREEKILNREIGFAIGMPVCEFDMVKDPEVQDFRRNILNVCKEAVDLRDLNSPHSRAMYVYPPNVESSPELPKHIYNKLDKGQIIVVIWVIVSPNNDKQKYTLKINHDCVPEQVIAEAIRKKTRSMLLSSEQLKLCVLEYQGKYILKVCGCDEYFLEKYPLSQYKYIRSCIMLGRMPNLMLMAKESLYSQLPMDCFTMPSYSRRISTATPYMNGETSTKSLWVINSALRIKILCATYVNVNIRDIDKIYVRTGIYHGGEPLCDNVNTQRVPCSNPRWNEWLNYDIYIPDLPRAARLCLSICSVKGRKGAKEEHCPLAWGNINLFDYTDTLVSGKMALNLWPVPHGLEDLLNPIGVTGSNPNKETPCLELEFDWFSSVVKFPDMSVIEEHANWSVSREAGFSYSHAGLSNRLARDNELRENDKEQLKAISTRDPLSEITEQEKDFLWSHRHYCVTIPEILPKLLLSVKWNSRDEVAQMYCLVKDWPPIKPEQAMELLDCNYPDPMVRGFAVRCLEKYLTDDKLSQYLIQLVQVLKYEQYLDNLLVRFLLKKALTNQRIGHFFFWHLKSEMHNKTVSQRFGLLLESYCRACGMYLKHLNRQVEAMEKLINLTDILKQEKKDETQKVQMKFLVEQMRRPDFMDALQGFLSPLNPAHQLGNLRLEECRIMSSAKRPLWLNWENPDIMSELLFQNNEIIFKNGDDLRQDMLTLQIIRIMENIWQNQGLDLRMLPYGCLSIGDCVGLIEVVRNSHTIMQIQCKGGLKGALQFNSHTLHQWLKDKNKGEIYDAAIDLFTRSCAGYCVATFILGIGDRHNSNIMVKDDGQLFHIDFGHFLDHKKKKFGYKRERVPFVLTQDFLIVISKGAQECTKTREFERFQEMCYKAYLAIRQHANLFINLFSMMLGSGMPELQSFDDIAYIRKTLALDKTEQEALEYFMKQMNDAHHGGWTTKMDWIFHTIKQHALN
PI3K (p110α/p85α), sequence (P27986 whole entry partner): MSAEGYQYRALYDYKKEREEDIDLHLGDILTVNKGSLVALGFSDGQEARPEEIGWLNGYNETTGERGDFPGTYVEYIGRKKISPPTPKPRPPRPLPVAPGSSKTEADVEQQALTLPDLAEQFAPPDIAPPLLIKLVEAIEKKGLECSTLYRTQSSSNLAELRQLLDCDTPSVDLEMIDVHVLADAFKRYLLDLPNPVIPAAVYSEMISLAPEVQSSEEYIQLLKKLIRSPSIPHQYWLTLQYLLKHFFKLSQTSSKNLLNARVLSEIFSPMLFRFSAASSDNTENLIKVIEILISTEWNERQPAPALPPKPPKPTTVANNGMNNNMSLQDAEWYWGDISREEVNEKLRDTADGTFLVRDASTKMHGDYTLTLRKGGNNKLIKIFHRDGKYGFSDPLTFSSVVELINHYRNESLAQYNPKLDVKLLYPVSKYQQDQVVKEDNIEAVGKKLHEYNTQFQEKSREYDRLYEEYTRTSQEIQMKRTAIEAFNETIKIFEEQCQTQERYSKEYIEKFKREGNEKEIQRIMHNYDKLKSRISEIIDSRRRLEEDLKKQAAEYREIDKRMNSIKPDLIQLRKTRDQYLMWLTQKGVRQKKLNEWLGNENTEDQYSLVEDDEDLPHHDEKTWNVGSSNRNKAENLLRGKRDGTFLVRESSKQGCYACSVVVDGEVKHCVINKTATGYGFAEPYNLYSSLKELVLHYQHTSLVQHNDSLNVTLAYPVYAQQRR

For COc1ccc(-c2nn3c(-c4ccc(S(C)(=O)=O)c(F)c4)c(C)nc3s2)cc1OC [Example 1, 2-(3,4-Dimethoxy-phenyl)-5-(3-fluoro-4-methanesulfonyl-phenyl) -6-methyl-imidazo[2,1-b][1,3,4]thiadiazole], the inhibition at 10 µM was 68% and the IC50 [1] was 0.1 to 1 µM.

COc1ccc(-c2nn3c(-c4ccc(C#N)nc4)c(C)nc3s2)cc1OC [Example 2, 5-[2-(3,4-Dimethoxy-phenyl)-6-methyl-imidazo[2,1-b][1,3,4]thiadiazol-5-yl]-pyridine-2-carbonitrile] showed an inhibition at 10 µM of 100% and an IC50 [1] of 0.1 to 1 µM.

For COc1ccc(-c2nn3c(-c4cnc(N)c(C(F)(F)F)c4)c(C)nc3s2)cc1OC [Example 3, 5-[2-(3,4-Dimethoxy-phenyl)-6-methyl-imidazo[2,1-b][1,3,4]thiadiazol-5-yl]-3-trifluoromethyl-pyridin-2-ylamine], the inhibition at 10 µM was 97% and the IC50 [1] was less than 0.1 µM.

COc1ccc(-c2nn3c(-c4cccnc4)c(C)nc3s2)cc1OC [Example 4, 2-(3,4-Dimethoxy-phenyl)-6-methyl-5-pyridin-3-yl-imidazo[2,1-b][1,3,4]thiadiazole] showed an inhibition at 10 µM of 81% and an IC50 [1] of 1 to 50 µM.

COc1ccc(-c2c(C)nc3sc(-c4ccc(OC)c(OC)c4)nn23)cn1 [Example 5, 2-(3,4-Dimethoxy-phenyl)-5-(6-methoxy-pyridin-3-yl)-6-methyl-imidazo[2,1-b][1,3,4]thiadiazole] showed an inhibition at 10 µM of 70%, an IC50 [1] of 1 to 50 µM and an IC50 (read-out: IC50 [μM] PI3Kα) of 2.88 µM.

Compound COc1ccc(-c2nn3c(-c4ccc(OC)c(OC)c4)c(C)nc3s2)cc1OC [Example 6, 2,5-Bis-(3,4-dimethoxy-phenyl)-6-methyl-imidazo[2,1-b][1,3,4]thiadiazole] has an inhibition at 10 µM of 85% and an IC50 [1] of 0.1 to 1 µM.

Work on COc1ccc(-c2nn3c(-c4cnc(N)nc4)c(C)nc3s2)cc1OC [Example 7, 5-[2-(3,4-Dimethoxy-phenyl)-6-methyl-imidazo[2,1-b][1,3,4]thiadiazol-5-yl]-pyrimidin-2-ylamine] yielded an inhibition at 10 µM of 100% and an IC50 [1] of 0.1 to 1 µM.

COc1ccc(-c2nn3c(-c4ccc(O)nc4)c(C)nc3s2)cc1OC [Example 8, 5-[2-(3,4-Dimethoxy-phenyl)-6-methyl-imidazo[2,1-b][1,3,4]thiadiazol-5-yl]-pyridin-2-ol] gave an IC50 [1] of 1 to 50 µM.

COc1cc(-c2nn3c(-c4cnc(N)c(C(F)(F)F)c4)c(C)nc3s2)ccc1OCCNC(=O)OC(C)(C)C [Example 9, tert-Butyl 2-(4-(5-(6-amino-5-(trifluoromethyl)pyridin-3-yl)-6-methylimidazo-[2,1-b][1,3,4]thiadiazol-2-yl)-2-methoxyphenoxy)ethylcarbamate] was tested, and the inhibition at 10 µM was 77% and the IC50 [1] was 1 to 50 µM.

Compound COc1cc(-c2nn3c(-c4cnc(N)c(C(F)(F)F)c4)c(C)nc3s2)ccc1OCC(=O)N(C)C [Example 10, 2-(4-(5-(6-amino-5-(trifluoromethyl)pyridin-3-yl)-6-methylimidazo[2,1-b][1,3,4]thiadiazol-2-yl)-2-methoxyphenoxy)-N,N-dimethylacetamide] has an IC50 [1] of 1 to 50 µM.

COc1cc(-c2nn3c(-c4cnc(N)c(C(F)(F)F)c4)c(C)nc3s2)ccc1OCCN1CCOCC1 [Example 11, 5-(2-(4-(2-morpholinoethoxy)-3-methoxyphenyl)-6-methylimidazo[2,1-b][1,3,4]thiadiazol-5-yl)-3-(trifluoromethyl)pyridin-2-amine] showed an inhibition at 10 µM of 83% and an IC50 [1] of 1 to 50 µM.

COc1cc(-c2nn3c(-c4cnc(N)c(C(F)(F)F)c4)cnc3s2)ccc1OC1CCNCC1 [Example 12, 5-{2-[3-Methoxy-4-(piperidin-4-yloxy)-phenyl]-imidazo[2,1-b][1,3,4]thiadiazol-5-yl}-3-trifluoromethyl-pyridin-2-ylamine] gave an IC50 [1] of less than 0.1 µM.

COc1ccc(-c2cnc3sc(-c4ccc(OC5CCNCC5)c(OC)c4)nn23)cn1 [Example 13, 2-[3-Methoxy-4-(piperidin-4-yloxy)-phenyl]-5-(6-methoxy-pyridin-3-yl)-imidazo[2,1-b][1,3,4]thiadiazole] gave an IC50 [1] of 1 to 50 µM.

COc1cc(-c2nn3c(-c4cnc(N)nc4)cnc3s2)ccc1OC1CCN(C(=O)OC(C)(C)C)CC1 [Example 14, 4-{4-[5-(2-Amino-pyrimidin-5-yl)-imidazo[2,1-b][1,3,4]thiadiazol-2-yl]-2-methoxy-phenoxy}-piperidine-1-carboxylic acid tert-butyl ester] gave an IC50 [1] of 1 to 50 µM.

With COc1cc(-c2nn3c(-c4cnc(N)nc4)cnc3s2)ccc1OC1CCNCC1 [Example 15, 5-{2-[3-Methoxy-4-(piperidin-4-yloxy)-phenyl]-imidazo[2,1-b][1,3,4]thiadiazol-5-yl}-pyrimidin-2-ylamine] the IC50 [1] was 0.1 to 1 µM and the IC50 (read-out: IC50 [μM] PI3Kα) was 0.115 µM.

Compound COc1ccc(-c2nn3c(-c4ccc(OC)c(OC)c4)cnc3s2)cc1OC [Example 16, 2,5-Bis-(3,4-dimethoxy-phenyl)-imidazo[2,1-b][1,3,4]thiadiazole] has an inhibition at 10 µM of 97% and an IC50 [1] of less than 0.1 µM.

For COc1ccc(-c2nn3c(-c4ccc(C#N)nc4)cnc3s2)cc1OC [Example 17, 5-[2-(3,4-Dimethoxy-phenyl)-imidazo[2,1-b][1,3,4]thiadiazol-5-yl]-pyridine-2-carbonitrile], the inhibition at 10 µM was 95%, the IC50 [1] was less than 0.1 µM and the IC50 (read-out: IC50 [μM] PI3Kα) was 0.063 µM.

Compound COc1ccc(-c2nn3c(-c4cnc(N)c(C#N)c4)cnc3s2)cc1OC [Example 18, 2-Amino-5-[2-(3,4-dimethoxy-phenyl)-imidazo[2,1-b][1,3,4]thiadiazol-5-yl]-nicotinonitrile] has an IC50 [1] of less than 0.1 µM and an IC50 (read-out: IC50 [μM] PI3Kα) of 0.033 µM.

COc1ccc(-c2nn3c(-c4cnc(N5CCN(C(=O)OC(C)(C)C)CC5)nc4)cnc3s2)cc1OC [Example 19, 4-{5-[2-(3,4-Dimethoxy-phenyl)-imidazo[2,1-b][1,3,4]thiadiazol-5-yl]-pyrimidin-2-yl}-piperazine-1-carboxylic acid tert-butyl ester] showed an IC50 [1] of 1 to 50 µM.

For COc1ccc(-c2nn3c(-c4cnc(N5CCNCC5)nc4)cnc3s2)cc1OC [Example 20, 2-(3,4-Dimethoxy-phenyl)-5-(2-piperazin-1-yl-pyrimidin-5-yl)-imidazo[2,1-b][1,3,4]thiadiazole], the IC50 [1] was 0.1 to 1 µM.

With COc1ccc(-c2nn3c(-c4cnc(N5CCN(C)CC5)nc4)cnc3s2)cc1OC [Example 21, 2-(3,4-Dimethoxy-phenyl)-5-[2-(4-methyl-piperazin-1-yl)-pyrimidin-5-yl]-imidazo[2,1-b][1,3,4]thiadiazole] the IC50 [1] was 0.1 to 1 µM.

With COc1ccc(-c2nn3c(-c4cnc(N5CCNCC5)c(C(F)(F)F)c4)cnc3s2)cc1OC [Example 22, 2-(3,4-Dimethoxy-phenyl)-5-(6-piperazin-1-yl-5-trifluoromethyl-pyridin-3-yl)-imidazo[2,1-b][1,3,4]thiadiazole] the IC50 [1] was 0.1 to 1 µM.

Work on COc1ccc(-c2nn3c(-c4cnc(N5CCN(C)CC5)c(C(F)(F)F)c4)cnc3s2)cc1OC [Example 23, 2-(3,4-Dimethoxy-phenyl)-5-[6-(4-methyl-piperazin-1-yl)-5-trifluoromethyl-pyridin-3-yl]-imidazo[2,1-b][1,3,4]thiadiazole] yielded an IC50 [1] of 0.1 to 1 µM and an IC50 (read-out: IC50 [μM] PI3Kα) of 0.447 µM.

Work on COc1ccc(-c2nn3c(-c4cnc(SC)nc4)cnc3s2)cc1OC [Example 24, 2-(3,4-Dimethoxy-phenyl)-5-(2-methylsulfanyl-pyrimidin-5-yl)-imidazo[2,1-b][1,3,4]thiadiazole] yielded an IC50 [1] of 0.1 to 1 µM.

In the case of COc1ccc(-c2nn3c(-c4cnc([S+](C)[O-])nc4)cnc3s2)cc1OC (stereo not drawn) [Example 25, 2-(3,4-Dimethoxy-phenyl)-5-(2-mthanesulfinyl-pyrimidin-5-yl) -imidazo[2,1-b][1,3,4]thiadiazole], the IC50 [1] is reported as 0.1 to 1 µM.

With COc1ccc(-c2nn3c(-c4cnc(NCCN(C)C)nc4)cnc3s2)cc1OC [Example 26, N′-{5-[2-(3,4-Dimethoxy-phenyl)-imidazo[2,1-b][1,3,4]thiadiazol-5-yl]-pyrimidin-2-yl}-N,N-dimethyl-ethane-1,2-diamine] the IC50 [1] was 0.1 to 1 µM.

Work on COc1cncc(-c2cnc3sc(-c4ccc(OC)c(OC)c4)nn23)c1 [Example 27, 2-(3,4-dimethoxyphenyl)-5-(5-methoxypyridin-3-yl)imidazo[2,1-b][1,3,4]thiadiazole] yielded an inhibition at 10 µM of 99% and an IC50 [1] of less than 0.1 µM.

With COc1cccc(-c2nn3c(-c4cnc(N)c(C(F)(F)F)c4)cnc3s2)c1 [Example 28, 5-[2-(3-Methoxy-phenyl)-imidazo[2,1-b][1,3,4]thiadiazol-5-yl]-3-trifluoromethyl-pyridin-2-ylamine] the IC50 [1] was 0.1 to 1 µM.

With N#Cc1cccc(-c2nn3c(-c4cnc(N)c(C(F)(F)F)c4)cnc3s2)c1 [Example 29, 3-[5-(6-Amino-5-trifluoromethyl-pyridin-3-yl)-imidazo[2,1-b][1,3,4]thiadiazol-2-yl]-benzonitrile] the IC50 [1] was less than 0.1 µM.

COc1ccc(-c2nn3c(-c4cnc(N)c(C(F)(F)F)c4)cnc3s2)cc1 [Example 30, 5-[2-(4-Methoxy-phenyl)-imidazo[2,1-b][1,3,4]thiadiazol-5-yl]-3-trifluoromethyl-pyridin-2-ylamine] was tested, and the IC50 [1] was 0.1 to 1 µM and the IC50 (read-out: IC50 [μM] PI3Kα) was 0.454 µM.
